Measurements as given in article PMC7898822, “RNA‐PROTACs: Degraders of RNA‐Binding Proteins” (Angewandte Chemie (International Ed. in English), 2020).
Oligonucleotides are written 5' to 3', each unit as a sugar letter and its base; * is a phosphorothioate linkage, no mark a phosphodiester; rarer units and linkages stand in square brackets, end groups in braces. Plain capitals give the bases only. {FAM} = fluorescein (FAM) label; r = 2'-OH (RNA)

Legend:
Lin28_ZKD [1] = target: T1, Lin28_ZKD (Homo sapiens, UniProt Q9H9Z2); assay: Fluorescence polarization competition assay (displacement of let7FAM from Lin28_ZKD); format: binding; details: competition FP, conjugate vs parent
T1 construct: construct encoding amino acids 124–186 of human Lin28; His6; made in house; host or cells: Escherichia coli BL21 (DE3) Codon+ (RIL)
T1 sequence (Q9H9Z2 124-186): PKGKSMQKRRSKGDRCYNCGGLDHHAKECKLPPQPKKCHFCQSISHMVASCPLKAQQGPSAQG
Procedure: (§1) Fluorescence Polarization Assay. Fluorescence polarization titration assay was carried out by titrating Lin28_ZKD protein into FAM-labeled PreE-let-7 at a 10 nM final concentration and buffer (10 mM HEPES, 150 mM NaCl, 10 µM ZiCl2, pH 7,4). The assay plate was briefly vortexed, and air bubbles were removed by spinning at 1000 rpm. The fluorescence anisotropy was measured on a Spectra Max Paradigm multimode plate reader (Molecular Devices). The fluorescence polarization competition […]
preE-let-7. The concentration of Lin28_ ZKD is kept at 40 nM, a value in the range of the dissociation constant of Lin28_ZKD and preE-let-7 determined through fluorescence polarization titration assay, whereas preE-let-7 concentration is kept constant at 10 nM. FP competitive binding assays were performed on 384-well plates (#3575, Corning) with a total well volume of 10 µL.
(§2) Fluorescence polarization readings were transferred into Prism 7.0 (GraphPad). All fluorescence polarization assays were repeated at least three times and the anisotropy values fitted using GraphPad Prism software using 1:1 binding/inhibition model. […]

myc-Lin28A = assay: Ubiquitination assay of myc-Lin28A in 22Rv1 cells; format: cell-based; details: HA-Ub co-transfected, 500 nM, 48 h, anti-HA western blot after cMyc IP
Procedure: (§3) Next, we investigated the ability of ORN3P1 and ORN7P1 to mediate ubiquitination of Lin28 in cells, using a previously described protocol. ^[32] Cells from the prostate cancer cell line 22RV1, which express very low levels of Lin28, were co‐transfected with two plasmids expressing pCMV‐myc‐Lin28A and HA‐tagged polyubiquitin (HA‐Ub).
(§4) After 48 h of incubation with ORN3P1 and ORN7P1, the tagged Lin28 (and the control QKI) was immunoprecipitated using an anti‐Myc antibody. The isolated protein was then analyzed by western blotting using the anti‐HA and anti‐c‐Myc antibodies. Consistent with other previously described PROTAC reagents,[ ^32 , ^33 ]
(§5) The protein extracts (12-17 µg) were run on a 4-20% SDS-PAGE and transferred on a nitrocellulose blotting membrane 0.22 µm (GE Healthcare) using the Trans-Blot transfer device (Biorad). Membranes were blocked with 5% milk and incubated with the primary antibody overnight at 4 °C. Membranes were washed with 0.05% PBS-T and reacted with the secondary antibody for 1 h in 5% milk. The proteins were detected using the anti-lin28a antibody (Cell Signaling technology, D9F5), anti-lin28b antibody (Cell Signaling technology, 4196S), anti-rbfox1 (NovusBio, NBP2-13169SS), at 1:1000 and anti-hrnp c antibody […]
(§6) (Abcam, AB133607) at 1:10000 dilutions. […]
(§7) on a ChemiDoc MP imager (Biorad). The intensity of the signal was quantified using the ImageJ-Fiji software. […]

QKI (pDEST-Myc-QKI) = assay: Ubiquitination assay of Myc-QKI (negative control RBP) in 22Rv1 cells; format: cell-based; details: pDEST-Myc-QKI and HA-Ub, 500 nM, 48 h
Procedure: as §3, §4, §5, §6, §7

Lin28A [2] = assay: Pull-down RNA ELISA, gymnosis, anti-Lin28A; format: cell-based, human; details: 3'-biotin conjugates, K562 cells, 2 µM, 24 h; streptavidin plate; vs mock or FUS antibody
Source text: Humans express two paralogs of the protein, LIN28 (Lin28A) and LIN28B (Lin28B), that play key roles in development, metabolism, and pluripotency. ^[34] Lin28 proteins are abundantly expressed during embryonic development, as well as in several tumors and tumor‐derived cell lines. ^[35] […] In order to confirm that RNA‐PROTACs bind to endogenous Lin28 in cells, we performed a pull‐down RNA ELISA assay that we have previously described. ^[36] Thus, we conjugated a biotin group to the 3′ ends of ORN3P1 and ORN7P1 and added these reagents separately on to myelogenous leukemia K562 cells. We incubated lysates from treated cells on streptavidin‐coated plates so as to capture the RNA‐PROTACs present in the cell lysates. We then assayed for the presence of Lin28A in the plates using an anti‐Lin28A antibody and a negative control anti‐FUS antibody. […]
as §5, with “Membranes were blocked with 5% milk and incubated with the primary antibody overnight at 4 °C. Membranes were washed with 0.05% PBS-T and reacted with the secondary antibody for 1 h in 5% milk.” left out
as §7

Lin28A [3] = assay: Western blot of Lin28A in NT2/D1 cells; format: cell-based, human; details: 2 μM, three independent experiments
Source text: Finally, we tested RNA‐PROTACs for their ability to degrade their target in two cell lines: the embryonic NT2/D1 cell line, which expresses high levels of Lin28A, ^[13a] and K562 cells which express Lin28A and Lin28B. […] Finally, we co‐treated K562 cells with ORN3P1 and MG132, a reversible inhibitor of the 26S proteasome. […] In order to explore the versatility of RNA‐PROTACs with non peptide‐based VHL ligands, we conjugated small‐molecule VH032 ^[38] to ORN3 via an amino linker to yield ORN3VH032 (Figure S1). […]

Lin28_ZKD [4] = target: T1, Lin28_ZKD; assay: Fluorescence polarization titration, Lin28_ZKD binding to preE-let-7f-1-FAM; details: Lin28_ZKD titrated into FAM-labeled preE-let-7, 10 nM; 10 mM HEPES, 150 mM NaCl, pH 7.4; read-out: K D of the Lin28_ZKD/let7FAM interaction
Procedure: as §1, with “Devices).” for “Devices). The fluorescence polarization competition”
as §2

Row | Compound | competition for Lin28_ZKD relative to parent unconjugated oligonucleotides (Lin28_ZKD [1]) | ubiquitination of myc-Lin28A (myc-Lin28A) | ubiquitination of QKI (QKI (pDEST-Myc-QKI)) | Lin28A pull-down signal (Lin28A [2]) | reduction of Lin28A (Lin28A [3]) [%] | Kd (Lin28_ZKD [4]) [µM]
1 | CC[C@H](C)[C@H](NC(=O)[C@H](Cc1ccc(O)cc1)NC(=O)[C@@H]1C[C@@H](O)CN1C(=O)[C@H](C)NC(=O)[C@H](CC(C)C)NC(=O)CCCCCNC(=O)[C@@H](N)CSC1CC(=O)N(CCOP(=O)(S)OC[C@H]2O[C@@H](n3cnc4c(N)ncnc43)[C@H](OCCOC)[C@@H]2OP(=O)(S)OC[C@H]2O[C@@H](n3cnc4c(=O)[nH]c(N)nc43)[C@H](OCCOC)[C@@H]2OP(=O)(S)OC[C@H]2O[C@@H](n3cnc4c(=O)[nH]c(N)nc43)[C@H](OCCOC)[C@@H]2OP(=O)(S)OC[C@H]2O[C@@H](n3cnc4c(N)ncnc43)[C@H](OCCOC)[C@@H]2OP(=O)(S)OC[C@H]2O[C@@H](n3cnc4c(=O)[nH]c(N)nc43)[C@H](OCCOC)[C@@H]2OP(=O)(S)OC[C@H]2O[C@@H](n3cnc4c(N)ncnc43)[C@H](OCCOC)[C@@H]2OP(=O)(S)OC[C@H]2O[C@@H](n3cc(C)c(=O)[nH]c3=O)[C@H](OCCOC)[C@@H]2OP(=O)(S)OC[C@H]2O[C@@H](n3cnc4c(N)ncnc43)[C@H](OCCOC)[C@@H]2OP(=O)(S)OC[C@H]2O[C@@H](n3cnc4c(N)ncnc43)[C@H](OCCOC)[C@@H]2OP(=O)(S)OC[C@H]2O[C@@H](n3cc(C)c(N)nc3=O)[C@H](OCCOC)[C@@H]2OP(=O)(S)OC[C@H]2O[C@@H](n3cc(C)c(=O)[nH]c3=O)[C@H](OCCOC)[C@@H]2O)C1=O)C(=O)O (stereo partly drawn) [ORN7P1] | competed slightly more strongly | showed a smear on the gel towards higher molecular weight | showed no such effects | strong signal for Lin28A protein | ~50 | –
2 | Let7FAM: FAM_GGGGUAGUGAUUU UACCCUGUUCAGGAGAU, PO-RNA; fluorescent probe ({FAM}-rGrGrGrGrUrArGrUrGrArUrUrUrUrArCrCrCrUrGrUrUrCrArGrGrArGrArU) | – | – | – | – | – | 0.027
